These results are taken from ChEMBL document CHEMBL3259542, “Design, synthesis and pharmacological evaluation of novel polycyclic heteroarene ethers as PDE10A inhibitors: Part I” (Bioorg Med Chem Lett, 2014).

In data set [1] the target is T1, cAMP and cAMP-inhibited cGMP 3',5'-cyclic phosphodiesterase 10A (Homo sapiens, UniProt Q9Y233). Put plainly: Inhibition of N-terminal GST-tagged human recombinant PDE10A assessed as substrate hydrolysis using [3H]cAMP as substrate after 30 mins by two-step radiometric assay.
T1 sequence (Q9Y233 whole entry): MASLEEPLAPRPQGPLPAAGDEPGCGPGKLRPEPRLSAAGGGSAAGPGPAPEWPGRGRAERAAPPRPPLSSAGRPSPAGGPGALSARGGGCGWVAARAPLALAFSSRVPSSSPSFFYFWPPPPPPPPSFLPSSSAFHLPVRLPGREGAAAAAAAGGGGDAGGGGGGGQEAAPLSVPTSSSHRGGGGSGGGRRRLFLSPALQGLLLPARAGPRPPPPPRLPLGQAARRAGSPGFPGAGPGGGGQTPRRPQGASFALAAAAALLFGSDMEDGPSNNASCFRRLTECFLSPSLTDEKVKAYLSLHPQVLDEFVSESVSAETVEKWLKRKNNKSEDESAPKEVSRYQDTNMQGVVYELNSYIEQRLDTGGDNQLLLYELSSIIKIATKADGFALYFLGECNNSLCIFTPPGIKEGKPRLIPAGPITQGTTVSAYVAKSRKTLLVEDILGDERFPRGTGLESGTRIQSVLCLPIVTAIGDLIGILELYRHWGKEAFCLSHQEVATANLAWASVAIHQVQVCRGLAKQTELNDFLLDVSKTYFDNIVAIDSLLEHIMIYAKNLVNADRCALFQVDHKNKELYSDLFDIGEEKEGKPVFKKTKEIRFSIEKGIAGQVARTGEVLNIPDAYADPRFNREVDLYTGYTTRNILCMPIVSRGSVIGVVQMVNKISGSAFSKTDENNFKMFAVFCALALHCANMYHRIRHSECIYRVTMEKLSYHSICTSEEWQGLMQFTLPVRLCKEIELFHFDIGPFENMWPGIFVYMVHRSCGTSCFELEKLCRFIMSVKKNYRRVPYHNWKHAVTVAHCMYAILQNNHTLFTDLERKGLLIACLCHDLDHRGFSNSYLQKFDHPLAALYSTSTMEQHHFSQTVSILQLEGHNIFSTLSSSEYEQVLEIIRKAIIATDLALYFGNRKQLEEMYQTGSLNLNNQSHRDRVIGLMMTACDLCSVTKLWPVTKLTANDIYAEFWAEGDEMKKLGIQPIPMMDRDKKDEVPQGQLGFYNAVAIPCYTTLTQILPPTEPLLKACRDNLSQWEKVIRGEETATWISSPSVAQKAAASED
Data set [2] in a line: Metabolic stability in human liver microsomes assessed as compound remaining at 1 uM after 60 mins. The following applies: read-out: Stability. The format is ADME. A general note: Microsomes from liver hold many membrane-bound enzymes, among them those of drug oxidation.
Data set [3] addresses T1, cAMP and cAMP-inhibited cGMP 3',5'-cyclic phosphodiesterase 10A. In words: Inhibition of N-terminal GST-tagged human recombinant PDE10A assessed as substrate hydrolysis using [3H]cAMP as substrate at 1 uM after 30 mins by two-step radiometric assay.
Data set [4] in a line: Metabolic stability in rat liver microsomes assessed as compound remaining at 1 uM after 60 mins. It is filed as ADME. To be noted: read-out: Stability.
The next data set has as its system Liver microsome. In words: Drug level in rat liver microsomes treated with 9-Methyl-3-(2-{[3-(pyrimidin-5-yl)pyridin-2-yl]oxy}ethyl)-9H-pyrido[2,3-b]indole at 1 uM after 60 mins by LC-MS/MS analysis. The following applies: 1 h. The format is ADME.
Data set [5] can be described thus: Retention time of the compound by HPLC analysis. The format is physicochemical.
Data set [6] deals with Dual specificity calcium/calmodulin-dependent 3',5'-cyclic nucleotide phosphodiesterase 1A (Homo sapiens) (UniProt P54750). Put plainly: Inhibition of N-terminal GST-tagged human recombinant PDE1A assessed as substrate hydrolysis using [3H]cAMP as substrate at 1 uM after 30 mins by two-step radiometric assay.
Data set [7] concerns the target cGMP-dependent 3',5'-cyclic phosphodiesterase (Homo sapiens) (UniProt O00408). Put plainly: Inhibition of N-terminal GST-tagged human recombinant PDE2A assessed as substrate hydrolysis using cAMP as substrate at 1 uM after 30 mins by homogenous time-resolved fluorescence method.
Data set [8] concerns the target cGMP-inhibited 3',5'-cyclic phosphodiesterase 3A (Homo sapiens) (UniProt Q14432). In words: Inhibition of N-terminal GST-tagged human recombinant PDE3A assessed as substrate hydrolysis using cAMP as substrate at 1 uM after 30 mins by homogenous time-resolved fluorescence method.
The species entered for another data set is Homo sapiens. In words: Selectivity for human recombinant PDE10A over human recombinant PDE2A.
Data set [9] addresses High affinity cGMP-specific 3',5'-cyclic phosphodiesterase 9A (Homo sapiens) (UniProt O76083). Put plainly: Inhibition of N-terminal GST-tagged human recombinant PDE9A assessed as substrate hydrolysis using [3H]cGMP as substrate at 1 uM after 30 mins by two-step radiometric assay.
Data set [10] deals with High affinity 3',5'-cyclic-AMP phosphodiesterase 7A (Homo sapiens) (UniProt Q13946). In words: Inhibition of N-terminal GST-tagged human recombinant PDE7A assessed as substrate hydrolysis using [3H]cAMP as substrate at 1 uM after 30 mins by two-step radiometric assay.
Chain of High affinity 3',5'-cyclic-AMP phosphodiesterase 7A (Homo sapiens) (Q13946 whole entry): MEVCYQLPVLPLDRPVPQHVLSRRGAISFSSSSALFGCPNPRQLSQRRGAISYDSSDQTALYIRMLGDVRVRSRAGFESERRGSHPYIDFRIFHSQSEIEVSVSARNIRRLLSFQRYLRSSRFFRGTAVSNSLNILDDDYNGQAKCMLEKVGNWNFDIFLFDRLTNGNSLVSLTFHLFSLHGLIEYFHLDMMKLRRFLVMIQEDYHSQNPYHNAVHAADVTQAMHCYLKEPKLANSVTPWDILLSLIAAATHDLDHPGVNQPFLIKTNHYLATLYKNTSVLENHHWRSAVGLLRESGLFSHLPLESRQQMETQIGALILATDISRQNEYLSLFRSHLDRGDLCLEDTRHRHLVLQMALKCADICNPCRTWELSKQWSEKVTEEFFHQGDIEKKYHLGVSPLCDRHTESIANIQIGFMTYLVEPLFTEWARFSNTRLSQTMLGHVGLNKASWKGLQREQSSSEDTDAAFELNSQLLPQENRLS
Data set [11] has as its target High affinity cAMP-specific and IBMX-insensitive 3',5'-cyclic phosphodiesterase 8A (Homo sapiens) (UniProt O60658). Put plainly: Inhibition of N-terminal GST-tagged human recombinant PDE8A assessed as substrate hydrolysis using [3H]cAMP as substrate at 1 uM after 30 mins by two-step radiometric assay.
In data set [12] the target is cGMP-specific 3',5'-cyclic phosphodiesterase (Homo sapiens) (UniProt O76074). Put plainly: Inhibition of N-terminal GST-tagged human recombinant PDE5A assessed as substrate hydrolysis using [3H]cGMP as substrate at 1 uM after 30 mins by two-step radiometric assay.
The target of data set [13] is 3',5'-cyclic-AMP phosphodiesterase 4D (Homo sapiens) (UniProt Q08499). Put plainly: Inhibition of N-terminal GST-tagged human recombinant PDE4D assessed as substrate hydrolysis using [3H]cAMP as substrate at 1 uM after 30 mins by two-step radiometric assay.
Chain of 3',5'-cyclic-AMP phosphodiesterase 4D (Homo sapiens) (Q08499 whole entry): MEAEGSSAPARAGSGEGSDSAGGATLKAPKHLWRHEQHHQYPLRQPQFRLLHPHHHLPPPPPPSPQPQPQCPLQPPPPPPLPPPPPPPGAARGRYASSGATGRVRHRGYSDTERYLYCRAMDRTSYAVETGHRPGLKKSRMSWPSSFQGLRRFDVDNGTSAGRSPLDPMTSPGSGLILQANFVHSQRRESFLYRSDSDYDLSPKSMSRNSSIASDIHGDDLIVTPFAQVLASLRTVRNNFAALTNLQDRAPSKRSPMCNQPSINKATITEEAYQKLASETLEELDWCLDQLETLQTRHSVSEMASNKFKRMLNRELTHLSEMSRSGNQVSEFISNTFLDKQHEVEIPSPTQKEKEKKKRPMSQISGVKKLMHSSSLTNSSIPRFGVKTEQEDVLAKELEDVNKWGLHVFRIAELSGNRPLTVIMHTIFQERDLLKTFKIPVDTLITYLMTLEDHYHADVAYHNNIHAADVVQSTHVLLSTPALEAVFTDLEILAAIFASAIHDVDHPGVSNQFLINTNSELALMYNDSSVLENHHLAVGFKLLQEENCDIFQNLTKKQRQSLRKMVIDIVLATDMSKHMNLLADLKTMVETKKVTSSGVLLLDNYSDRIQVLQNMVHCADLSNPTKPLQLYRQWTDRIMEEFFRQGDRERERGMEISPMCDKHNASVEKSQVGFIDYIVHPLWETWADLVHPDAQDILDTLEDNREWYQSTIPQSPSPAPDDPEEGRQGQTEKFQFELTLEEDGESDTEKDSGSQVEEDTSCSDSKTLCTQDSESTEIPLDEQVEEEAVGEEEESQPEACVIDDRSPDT
Data set [14] concerns the target cGMP-dependent 3',5'-cyclic phosphodiesterase (Homo sapiens) (UniProt O00408). In words: Inhibition of N-terminal GST-tagged human recombinant PDE2A assessed as substrate hydrolysis using cAMP as substrate at 10 uM after 30 mins by homogenous time-resolved fluorescence method.
Data set [15] concerns the target Dual 3',5'-cyclic-AMP and -GMP phosphodiesterase 11A (Homo sapiens) (UniProt Q9HCR9). Put plainly: Inhibition of N-terminal GST-tagged human recombinant PDE11A assessed as substrate hydrolysis using [3H]cAMP as substrate at 1 uM after 30 mins by two-step radiometric assay.
Data set [16] can be described thus: Cmax in Sprague-Dawley rat at 5 mg/kg, po. It is filed as ADME, organism-based. More on the design: dose 5 mg/kg, route oral. The following applies: in vivo.
Data set [17] is described as follows: AUC (0 to t) in Sprague-Dawley rat at 5 mg/kg, po. It is filed as ADME, organism-based. On the set-up: dose 5 mg/kg, route oral. To be noted: plasma.
Data set [18] in a line: Drug uptake in Sprague-Dawley rat brain at 5 mg/kg, po after 1 hr. The format is ADME, organism-based. On the set-up: dose 5 mg/kg, route oral. To be noted: read-out: Drug uptake.

Chain of Dual 3',5'-cyclic-AMP and -GMP phosphodiesterase 11A (Homo sapiens) (Q9HCR9 whole entry, looked up): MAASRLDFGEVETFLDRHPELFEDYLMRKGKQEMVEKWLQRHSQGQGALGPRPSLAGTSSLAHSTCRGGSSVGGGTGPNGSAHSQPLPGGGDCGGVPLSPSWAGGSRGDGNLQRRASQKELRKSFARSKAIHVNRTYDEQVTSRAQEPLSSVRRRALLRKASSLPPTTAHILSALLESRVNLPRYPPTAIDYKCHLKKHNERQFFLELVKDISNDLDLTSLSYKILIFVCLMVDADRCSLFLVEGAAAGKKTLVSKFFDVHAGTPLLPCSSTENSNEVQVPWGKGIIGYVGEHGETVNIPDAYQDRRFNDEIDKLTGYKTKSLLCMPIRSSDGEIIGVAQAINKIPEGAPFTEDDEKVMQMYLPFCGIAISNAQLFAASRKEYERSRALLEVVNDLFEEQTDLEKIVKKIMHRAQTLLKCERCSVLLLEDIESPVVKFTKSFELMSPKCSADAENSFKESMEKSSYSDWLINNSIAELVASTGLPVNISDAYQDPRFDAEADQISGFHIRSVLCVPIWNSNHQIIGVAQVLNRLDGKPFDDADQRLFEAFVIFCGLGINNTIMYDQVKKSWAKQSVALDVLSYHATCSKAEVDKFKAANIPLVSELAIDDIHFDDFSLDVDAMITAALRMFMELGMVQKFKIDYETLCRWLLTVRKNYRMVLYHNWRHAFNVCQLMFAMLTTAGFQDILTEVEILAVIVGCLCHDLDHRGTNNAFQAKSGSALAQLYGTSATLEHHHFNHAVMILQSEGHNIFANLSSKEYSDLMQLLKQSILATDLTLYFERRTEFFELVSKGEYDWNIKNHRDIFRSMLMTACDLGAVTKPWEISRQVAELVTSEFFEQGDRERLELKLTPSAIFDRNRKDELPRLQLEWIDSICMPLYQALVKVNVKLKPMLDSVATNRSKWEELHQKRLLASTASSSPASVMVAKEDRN
Chain of High affinity cAMP-specific and IBMX-insensitive 3',5'-cyclic phosphodiesterase 8A (Homo sapiens) (O60658 whole entry): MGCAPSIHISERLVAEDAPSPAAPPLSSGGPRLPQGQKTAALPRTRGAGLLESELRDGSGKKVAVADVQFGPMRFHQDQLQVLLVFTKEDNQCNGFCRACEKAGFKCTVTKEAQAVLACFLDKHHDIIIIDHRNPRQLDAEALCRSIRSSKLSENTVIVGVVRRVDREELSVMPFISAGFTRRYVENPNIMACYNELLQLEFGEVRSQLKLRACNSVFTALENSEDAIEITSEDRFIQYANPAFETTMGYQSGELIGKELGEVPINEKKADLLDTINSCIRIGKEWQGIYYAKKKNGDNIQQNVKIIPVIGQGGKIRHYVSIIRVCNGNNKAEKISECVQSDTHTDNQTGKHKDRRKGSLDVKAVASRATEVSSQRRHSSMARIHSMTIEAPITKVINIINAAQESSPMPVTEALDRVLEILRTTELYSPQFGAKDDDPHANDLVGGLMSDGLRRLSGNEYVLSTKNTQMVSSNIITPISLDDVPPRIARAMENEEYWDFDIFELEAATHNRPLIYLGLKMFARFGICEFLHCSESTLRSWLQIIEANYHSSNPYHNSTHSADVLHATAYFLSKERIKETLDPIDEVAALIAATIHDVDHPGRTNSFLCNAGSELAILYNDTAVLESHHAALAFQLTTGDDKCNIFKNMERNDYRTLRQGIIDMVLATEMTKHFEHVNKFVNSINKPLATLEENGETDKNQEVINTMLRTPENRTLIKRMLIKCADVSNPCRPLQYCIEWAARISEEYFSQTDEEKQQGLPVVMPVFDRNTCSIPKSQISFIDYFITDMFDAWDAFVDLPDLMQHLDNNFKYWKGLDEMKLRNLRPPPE
Chain of cGMP-dependent 3',5'-cyclic phosphodiesterase (Homo sapiens) (O00408 whole entry): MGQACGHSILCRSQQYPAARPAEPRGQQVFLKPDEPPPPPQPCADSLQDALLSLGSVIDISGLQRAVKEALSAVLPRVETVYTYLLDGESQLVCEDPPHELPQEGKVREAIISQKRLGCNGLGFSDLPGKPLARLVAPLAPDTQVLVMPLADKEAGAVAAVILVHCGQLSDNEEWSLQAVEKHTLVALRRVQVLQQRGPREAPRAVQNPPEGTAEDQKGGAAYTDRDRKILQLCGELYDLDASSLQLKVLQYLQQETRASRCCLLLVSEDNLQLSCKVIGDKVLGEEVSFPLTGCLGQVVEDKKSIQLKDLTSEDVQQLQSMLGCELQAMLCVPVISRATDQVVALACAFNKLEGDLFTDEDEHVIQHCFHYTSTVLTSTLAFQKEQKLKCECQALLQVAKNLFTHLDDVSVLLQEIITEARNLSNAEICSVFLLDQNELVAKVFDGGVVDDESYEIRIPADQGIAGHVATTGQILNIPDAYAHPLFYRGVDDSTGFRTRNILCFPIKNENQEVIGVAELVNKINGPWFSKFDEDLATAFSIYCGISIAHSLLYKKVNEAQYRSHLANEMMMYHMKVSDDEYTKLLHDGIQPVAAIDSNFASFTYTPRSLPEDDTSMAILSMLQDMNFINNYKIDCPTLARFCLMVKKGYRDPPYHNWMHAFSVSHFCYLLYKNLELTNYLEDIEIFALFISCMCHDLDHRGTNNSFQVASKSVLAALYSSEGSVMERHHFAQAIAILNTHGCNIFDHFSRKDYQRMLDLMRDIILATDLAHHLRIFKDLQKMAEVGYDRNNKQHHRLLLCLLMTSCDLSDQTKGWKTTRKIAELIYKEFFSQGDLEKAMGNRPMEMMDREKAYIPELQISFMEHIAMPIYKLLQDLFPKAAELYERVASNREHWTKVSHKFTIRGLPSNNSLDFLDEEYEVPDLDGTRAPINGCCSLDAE

As usually defined, the IC50 is the point on the concentration scale where inhibition reaches its midpoint. In general, inhibition refers to how much of the control response was suppressed. For `Cn1c2ccccc2c2cc(C3(COc4ncccc4-c4cncnc4)CC3)cnc21`, in [1], the IC50 amounted to 0.971 µM. Besides, the remaining at 1 h, 1 µM amounted to 19.6% in data set [2] and 17.5% in data set [4]. In addition, in data set [3], the inhibition turned out to be 54.7%.

As for `Cn1c2ccccc2c2cc(CCOc3ncccc3-c3ccc(Cl)cc3)cnc21`, in data set [1], the half-inhibitory concentration (IC50) came out at 0.592 µM. Besides, the inhibition in [3] stood at 75.7%.

`C[N+]1([O-])c2ccccc2-c2cc(/C=C/Oc3ncccc3-c3cncnc3)cnc21` (centres undefined): in the data set on Liver microsome, the Drug metabolism entry was “metabolite_detected”. This molecule also yielded a Retention_time in data set [5] of 8.64 min.

Take `FC(F)n1c2ccccc2c2cc(CCOc3ncccc3-c3cncnc3)cnc21`: the inhibition in [6] came out at 14%; in data set [7], 40.6%; in data set [8], 0.4%; in data set [9], 5.3%; in [10], 20.8%; in data set [11] it was 2.1%. For the same molecule, the inhibition was determined as 16.7% in data set [12]; 96.3% in data set [3]; 3.8% in data set [13]; 60% in data set [14]; 15.8% in data set [15]. For the same molecule, the half-maximal inhibitory concentration (IC50) in data set [1] was found to be 0.0332 µM. Also, the Selectivity ratio in the data set filed under Homo sapiens was 100. In addition, the results for the remaining at 1 h, 1 µM in [2] and in [4] were 51.1% and 41.2%, respectively.

For `Cn1cc(COc2nccc(-c3ccc(F)cc3)n2)c2nc3ccccc3cc21`, the inhibition in [3] worked out at 12.1%.

Take `FC(F)(F)Cn1cc(-c2ccncc2)c(-c2ccc(OCc3ccc4ccccc4n3)cc2)n1`: the IC50 in data set [1] turned out to be 0.00141 µM.

Turning to `Cn1c2ccccc2c2cc(CCOc3nccnc3-c3cncnc3)cnc21`, in [1], the IC50 was 0.0674 µM. The inhibition in data set [3] is 83.4%.

As to `Cn1c2ccccc2c2cc(CCOc3nccnc3-c3ccc(Cl)cc3)cnc21`, the concentration for half-maximal inhibition (IC50) in data set [1] is 0.188 µM. Besides, in data set [3], the inhibition stood at 87.2%.

Broadly, the Cmax is the peak of the concentration-time curve. What is called AUC(0-t) is the area under the concentration-time curve up to a stated or last time point. Lower therefore signals less exposure. Consider `Cn1c2ccccc2c2cc(CCOc3nccnc3-c3ccc(F)cc3)cnc21`, for which the inhibition in data set [6] is 13.5%; in [7] it was 11.9%; in [8] it was 0.1%; in data set [9] it was 1.6%; in [10], 18.3%; in [11] it was 0%. In addition, the inhibition in data set [12] was 5.9%; in [3] it was 85.4%; in [13], 0.7%; in data set [14], 60%; in data set [15] it was 18.6%. Further, in [1], the 50% inhibitory concentration (IC50) turned out to be 0.0415 µM. Moreover, the Selectivity ratio in the data set listed under Homo sapiens amounted to 100. Further, the values for the remaining at 1 h, 1 µM in data set [2] and in data set [4] were 9.92% and 3.19%, respectively. In data set [16], the highest level (Cmax) was 0.103 µg/mL. The molecule also returned an AUC(0-t) in [17] of 0.19 µg·h/mL. The concentration at 1 h in [18] is less than 0.0054 µg/mL.

Take `Cn1c2ccccc2c2cc(/C=C\Oc3ncccc3-c3cncnc3)cnc21`: the Drug metabolism entry with Liver microsome is “metabolite_detected”. Also, the Retention_time in [5] stood at 10.86 min.

As to `Cn1cc(CCOc2nccnc2-c2cncnc2)c2nc3ccccc3cc21`, in data set [1], the IC50 came to 0.123 µM. For the same molecule, the remaining at 1 h, 1 µM in data set [2] is 0.11%; in [4], 0.27%. In data set [3], the inhibition is 82.1%.

As for `Cn1cc(COc2ncccc2-c2ccncc2)c2nc3ccccc3cc21`, the inhibition in [3] stood at 24.6%.

For the molecule `Cn1c2ccccc2c2cc(C(O)COc3ncccc3-c3cncnc3)cnc21` (centres undefined), the Drug metabolism entry with Liver microsome is “metabolite_detected”. Also, the Retention_time in data set [5] was 11.55 min.

With `Cn1c2ccccc2c2cc(/C=C/Oc3ncccc3-c3cncnc3)cnc21`, in the data set with Liver microsome, the Drug metabolism result is on record as “metabolite_detected”. Moreover, in [5], the Retention_time was 11.81 min.

Consider `Cn1c2ccccc2c2cc(CCCOc3ncccc3N3CCOCC3)cnc21`, for which the inhibition in data set [3] came out at 19.1%.

Regarding `Cn1c2ccccc2c2cc(CCOc3nccnc3-c3ccncc3)cnc21`, the inhibition in [6] was determined as 30.1%; in data set [7] it was 34.5%; in [8], 0.2%; in data set [9], 4.3%; in [10], 27%; in [11], 2%. Also, the inhibition in data set [12] came out at 13.6%; in data set [3] it was 97.2%; in data set [13], 11.9%; in [14], 60%; in data set [15], 21.7%. Further, the IC50 in data set [1] came out at 0.0112 µM. In the data set filed under Homo sapiens, the Selectivity ratio amounted to 100. The remaining at 1 h, 1 µM in [2] is 0.72%; in [4], 1.03%.

For `[O-][n+]1cc(CCOc2ncccc2-c2cncnc2)cc2c3ccccc3[nH]c21`, the Drug metabolism entry in the data set on Liver microsome is recorded as “metabolite_detected”. This molecule also gave a Retention_time in data set [5] of 6.78 min.

As for `Cn1c2ccccc2c2cc(CCOc3ncccc3-c3ccc(F)cc3)cnc21`, the half-inhibitory concentration (IC50) in [1] was determined as 0.0685 µM. Further, the inhibition in data set [3] is 88.5%.

Regarding `Cn1c2ccccc2c2cc(/C=C/Oc3c(-c4cncnc4)ccc[n+]3[O-])cnc21`, in the data set on Liver microsome, the Drug metabolism result was “metabolite_detected”. This molecule had a Retention_time in data set [5] of 9.69 min.

Turning to `Cn1c2ccccc2c2cc(CCCOc3ncccc3-c3cncnc3)cnc21`, the IC50 in [1] worked out at 3.22 µM. In addition, in [3], the inhibition worked out at 43.1%.

Turning to `c1cnc(OCCc2cnc3[nH]c4ccccc4c3c2)c(-c2cncnc2)c1`, in the data set with Liver microsome, the Drug metabolism result is “metabolite_detected”. The molecule further returned a Retention_time in data set [5] of 10.86 min.

On to `Cn1c2ccccc2c2cc(CCOc3ncccc3-c3ccncc3)cnc21`, for which the inhibition in data set [6] was 40.9%; in data set [7] it was 41.4%; in data set [8] it was 0%; in data set [9], 1.3%; in [10] it was 40.5%; in [11], 11.2%. The inhibition was 36.5% in data set [12]; 95.8% in data set [3]; 0.6% in data set [13]; 60% in [14]; 17.4% in data set [15]. In addition, in [1], the IC50 was found to be 0.0104 µM. Further, in the data set listed under Homo sapiens, the Selectivity ratio is 100. Besides, the figures for the remaining at 1 h, 1 µM in data set [2] and in data set [4] were 0.63% and 0.77%, respectively.

In the case of `Cn1c2ccccc2c2cc(COc3nccc(-c4cncnc4)n3)cnc21`, the inhibition in data set [3] was 23.6%.

Take `OC(COc1ncccc1-c1cncnc1)c1cnc2[nH]c3ccccc3c2c1` (centres undefined): in the data set on Liver microsome, the Drug metabolism result was “metabolite_detected”. In addition, in data set [5], the Retention_time is on record as 9.06 min.

In the case of `Cn1c2ccccc2c2cc(COc3nccc(-c4ccc(F)cc4)n3)cnc21`, the inhibition in data set [3] was determined as 23.9%.

With `Cn1c2ccccc2c2cc(COc3nccnc3-c3cncnc3)cnc21`, the inhibition in data set [3] amounted to 10.9%.

As to `Cn1c2ccccc2c2cc(/C=C/Oc3ncccc3-c3cncnc3)c[n+]([O-])c21`, in the data set with Liver microsome, the Drug metabolism result was “metabolite_detected”. Moreover, the Retention_time in [5] turned out to be 9.23 min.

Regarding `Cn1cc(COc2ncccc2-c2cncnc2)c2nc3ccccc3cc21`, in data set [3], the inhibition was found to be 30.7%.

Consider `Cn1c2ccccc2c2cc(CCCOc3ncccc3-c3cccnc3F)cnc21`, for which, in data set [1], the concentration for half-maximal inhibition (IC50) was 5.94 µM. Further, the inhibition in data set [3] came out at 48.9%.
